Assay results from ChEMBL document CHEMBL2086273, “Significant activity of ecdysteroids on the resistance to doxorubicin in mammalian cancer cells expressing the human ABCB1 transporter” (J Med Chem, 2012).

Legend:
[1] = target: T1, ATP-dependent translocase ABCB1 (Homo sapiens, UniProt P08183); experiment: Inhibition of human ABCB1 pump expressed in mouse L5178 cells assessed as fluorescence activity ratio at 20 uM for 10 mins by flow cytometry relative to control; assay type: cell-based; details: l5178, 10 min
T1 sequence (P08183 whole entry): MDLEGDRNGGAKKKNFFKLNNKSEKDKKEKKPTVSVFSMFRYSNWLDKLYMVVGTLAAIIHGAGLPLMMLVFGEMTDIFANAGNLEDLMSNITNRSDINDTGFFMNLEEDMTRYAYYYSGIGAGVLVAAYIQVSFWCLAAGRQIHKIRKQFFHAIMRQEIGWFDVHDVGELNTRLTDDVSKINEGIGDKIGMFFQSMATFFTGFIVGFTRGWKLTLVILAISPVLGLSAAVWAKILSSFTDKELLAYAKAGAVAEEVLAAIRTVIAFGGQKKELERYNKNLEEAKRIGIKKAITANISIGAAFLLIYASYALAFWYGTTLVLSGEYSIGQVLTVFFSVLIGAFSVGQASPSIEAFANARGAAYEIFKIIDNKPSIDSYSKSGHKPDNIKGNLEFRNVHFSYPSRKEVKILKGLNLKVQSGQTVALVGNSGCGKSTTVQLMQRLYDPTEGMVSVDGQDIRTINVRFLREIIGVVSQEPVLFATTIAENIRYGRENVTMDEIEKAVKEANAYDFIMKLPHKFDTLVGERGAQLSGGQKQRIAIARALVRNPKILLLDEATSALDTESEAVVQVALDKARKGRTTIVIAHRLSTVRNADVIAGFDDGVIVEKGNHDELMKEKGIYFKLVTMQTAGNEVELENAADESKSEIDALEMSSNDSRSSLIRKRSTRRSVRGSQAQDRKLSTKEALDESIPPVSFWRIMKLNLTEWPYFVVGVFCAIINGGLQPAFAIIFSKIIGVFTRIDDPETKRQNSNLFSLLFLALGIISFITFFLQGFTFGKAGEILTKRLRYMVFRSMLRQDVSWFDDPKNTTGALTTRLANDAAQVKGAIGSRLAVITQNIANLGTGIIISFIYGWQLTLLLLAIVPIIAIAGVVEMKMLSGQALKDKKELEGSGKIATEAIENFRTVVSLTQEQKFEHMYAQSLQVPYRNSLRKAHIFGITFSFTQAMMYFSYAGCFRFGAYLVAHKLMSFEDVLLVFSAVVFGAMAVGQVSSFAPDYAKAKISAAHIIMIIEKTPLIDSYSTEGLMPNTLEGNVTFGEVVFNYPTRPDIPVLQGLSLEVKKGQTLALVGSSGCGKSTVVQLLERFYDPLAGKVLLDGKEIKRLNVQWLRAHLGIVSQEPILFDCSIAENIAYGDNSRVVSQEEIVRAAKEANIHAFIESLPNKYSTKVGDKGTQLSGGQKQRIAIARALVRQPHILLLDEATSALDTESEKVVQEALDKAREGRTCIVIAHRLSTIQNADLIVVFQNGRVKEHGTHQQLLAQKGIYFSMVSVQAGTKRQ

[2] = target: T1, ATP-dependent translocase ABCB1; experiment: Inhibition of human ABCB1 expressed in mouse L5178 cells assessed as 95% inhibition of cell proliferation at compound-doxorubicin ratio of 81.5:1 after 48 hrs by MTT assay; assay type: cell-based; details: l5178, 48 h
[3] = Antiproliferative activity against multidrug-resistant mouse L5178 cells after 72 hrs by MTT assay; assay type: functional, cell-based; details: L5178, 72 h
[4] = target: T1, ATP-dependent translocase ABCB1; experiment: Inhibition of human ABCB1 expressed in mouse L5178 cells assessed as 50% inhibition of cell proliferation at compound-doxorubicin ratio of 81.5:1 after 48 hrs by MTT assay; assay type: cell-based; details: l5178, 48 h
[5] = target: T1, ATP-dependent translocase ABCB1; experiment: Inhibition of human ABCB1 expressed in mouse L5178 cells assessed as 75% inhibition of cell proliferation at compound-doxorubicin ratio of 81.5:1 after 48 hrs by MTT assay; assay type: cell-based; details: l5178, 48 h
[6] = target: T1, ATP-dependent translocase ABCB1; experiment: Inhibition of human ABCB1 expressed in mouse L5178 cells assessed as 75% inhibition of cell proliferation at compound-doxorubicin ratio of 40.8:1 after 48 hrs by MTT assay; assay type: cell-based; details: l5178, 48 h
[7] = target: T1, ATP-dependent translocase ABCB1; experiment: Inhibition of human ABCB1 expressed in mouse L5178 cells assessed as 95% inhibition of cell proliferation at compound-doxorubicin ratio of 40.8:1 after 48 hrs by MTT assay; assay type: cell-based; details: l5178, 48 h
[8] = target: T1, ATP-dependent translocase ABCB1; experiment: Inhibition of human ABCB1 expressed in mouse L5178 cells assessed as 50% inhibition of cell proliferation at compound-doxorubicin ratio of 40.8:1 after 48 hrs by MTT assay; assay type: cell-based; details: l5178, 48 h

Structure (SMILES)	Ratio [1]	fractional inhibitory concentration index (FICI) [2]	IC50 [3] [µM]	fractional inhibitory concentration index (FICI) [4]	fractional inhibitory concentration index (FICI) [5]	fractional inhibitory concentration index (FICI) [6]	fractional inhibitory concentration index (FICI) [7]	fractional inhibitory concentration index (FICI) [8]
CC(C)(O)CC[C@@H](O)[C@](C)(O)[C@H]1CC[C@@]2(O)C3=CC(=O)[C@@H]4C[C@H](O)[C@@H](O)C[C@]4(C)[C@H]3CC[C@]12C	0.89	0.22	30	1.16	0.45			
CC(O)(CO)CC[C@@H](O)[C@](C)(O)[C@H]1CC[C@@]2(O)C3=CC(=O)[C@]4(O)C[C@@H](O)[C@@H](O)C[C@]4(C)[C@H]3CC[C@]12C (some centres undefined)	1.32	0.12	30	2.24	0.47			
CC[C@H](C[C@@H](O)[C@](C)(O)[C@H]1CC[C@@]2(O)C3=CC(=O)[C@@H]4C[C@@H](O)[C@@H](O)C[C@]4(C)[C@H]3CC[C@]12C)C(C)(C)O [MAKISTERONE C]	0.66					0.42	0.2	0.98
C=C(C)CC[C@@H](O)[C@](C)(O)[C@H]1CC[C@@]2(O)C3=CC(=O)[C@@H]4C[C@@H](O)[C@@H](O)C[C@]4(C)C3=CC[C@]12C	1.43					0.85	0.43	1.75
CC(=O)O[C@H]1C[C@]2(C)[C@H]3CC[C@]4(C)[C@@H]([C@@](C)(O)[C@@H](CCC(C)(C)O)OC(C)=O)CC[C@@]4(O)C3=CC(=O)[C@]2(O)C[C@H]1OC(C)=O	47.95					0.3	0.26	0.35
CC(C)(O)CC[C@@H](O)[C@](C)(O)[C@H]1CC[C@]2(O)C3=CC(=O)[C@@H]4C[C@@H](O)[C@@H](O)C[C@]4(C)[C@H]3CC[C@]12C	1.03	0.69	30	1.18	0.91			
CC(=O)O[C@H]1C[C@]2(C)[C@H]3CC[C@]4(C)[C@@H]([C@@](C)(O)[C@@H](CCC(C)(C)O)OC(C)=O)CC[C@@]4(O)C3=CC(=O)[C@]2(O)C[C@H]1O	0.84					0.86	0.6	1.22
CC(C)(O)CC[C@@H](O)[C@](C)(O)[C@H]1CC[C@@]2(O)C3=CC(=O)[C@@H]4C[C@@H](O)CC[C@]4(C)[C@H]3CC[C@]12C	0.55					1.48	2.26	1.05
CC(=O)O[C@H]1C[C@@]2(C)[C@@H](C[C@H]1OC(C)=O)C(=O)C=C1[C@@H]2CC[C@]2(C)[C@@H]([C@@](C)(O)[C@@H](CCC(C)(C)O)OC(C)=O)CC[C@@]12O	1.25					0.91	0.7	1.26
